Reference: patent publication US10676767B2, “Methods and compositions for making ephedrine and related alkaloid compounds” (priority 2015, dated 2020)

Legend:
[1] = tested on: N-methyltransferase (NMT); test: Standard enzyme assay with purified E. coli-produced NMT, N-methylated product measured by LC-MS; assay type: biochemical, Ephedra sinica; details: for acceptance as substrate for N-methylation by NMT (FIG. 3): 1 mM alkaloid substrate, 1 mM SAM, 100 μg/mL purified NMT, 4 h at 37° C., pH 8.5
Method: Open reading frames (ORFs) of N-methyltransferase (NMT) enzyme sequences (i.e. SEQ. ID NO: 1 and SEQ. ID NO: 2) were subcloned into Escherichia coli expression vector pET47b (Merck Millipore) in-frame with vector-encoded His-tag for downstream purification purposes. Constructs were transformed into E. coli strains ArcticExpress (Agilent Technologies) or Rosetta (Novagen). Recombinant His-tagged protein production was performed according to standard procedures (Farrow et al. 2013. J. Biol. Chem. 288: 28977) and manufacturer's instructions. Briefly, cultures of E. coli harboring pET47b were grown on an orbital shaker (200 rpm) to log phase in 1 L of LB medium containing gentamicin, streptomycin and kanamycin (Arctic Express) or chloramphenicol and kanamycin (Rosetta). Recombinant His-tagged protein production was initiated by the addition of 1 mM isopropyl β-D-1-thiogalactopyranoside (IPTG). To produce NMT, cultures were grown for 24 h at 15° C.
For purification, bacterial pellets obtained following induction/incubation were resuspened in 10 mL of resuspension buffer (50 mM Tris pH 8.5, 10% v/v glycerol, 1% w/v polyvinylpyrrolidone, 5 mM dithiothreitol) and lysed at 4° C. using a French pressure cell (1,000 psi). After centrifugation (10,000 g) to remove insoluble debris, the supernatant was incubated on ice with buffer-equilibrated Talon resin (Clontech) on an orbital shaker (60 rpm) for 60 minutes. The protein-charged resin was washed twice with 10 mL of cold resuspension buffer containing 2.5 mM imidazole, and proteins were eluted stepwise with increasing concentrations (10 to 200 mM) of imidazole in resuspension buffer. Total proteins from a 40 mM imidazole elution were desalted using a PD-10 column (EMD Millipore) and resuspension buffer free of imidazole. Recombinant proteins were analyzed by SDS-PAGE to assess yield and purity, and immunoblot analyses were conducted using α-His primary antibodies and goat-anti-mouse, horseradish peroxidase-conjugated secondary antibodies. Total protein concentration was determined using BCA Protein Assay kit (Thermo Scientific). Calculated protein concentrations were adjusted on gel densitometry. […] Specifically, standard enzyme reactions consisted of 50 mM Tris pH 8.5, 10 v/v glycerol, 1% w/v polyvinylpyrrolidone, 5 mM dithiothreitol, 1 mM alkaloid substrate, 1 mM SAM (S-adenosylmethionine) and 100 μg/mL purified NMT protein in a total of 100 μl reaction volume. Reactions were incubated for 4 h at 37° C., and stopped via 1) basification of the reaction mixture to pH 10-11, and 2) immediate addition of 1 mL ethyl acetate. Quenched reactions were vortexed and centrifuged (10,000 rpm) to separate organic and aqueous phases, and organic phase was carefully drawn off, placed in a new tube, reduced to dryness under vacuum, and resuspended in 500 μL of Solvent A (10 mM ammonium acetate pH 5.5, 5% v/v methanol). The resuspensions were centrifuged (10,000 rpm) prior to analysis by LC-MS to remove insoluble matter.
Ten μL sample was injected for LC-MS analysis using an Agilent 6410B triple quadrupole mass analyzer equipped with a 1200 Agilent HPCL system. Samples were fractionated using a previously described LC-ESI-MS/MS method [J. Chromatography B. 879:727, 2011] employing a Prodigy Phenyl-3 column (Phenomenex) which separated enantiomeric pairs (e.g. pseudoephedrine/ephedrine). Briefly, the HPLC gradient began as 95% Solvent A (Solvent B=100% methanol) for 1 minute at a flow rate of 0.2 ml/min, and decreased to 30% Solvent A/70% Solvent B over 19 minutes, then graded to 10% Solvent A/[…] over 0.5 minutes, then immediately returned to 100% Solvent A and equilibrated for 5 minutes. […] ESI and MS conditions were essentially the same as described [J. Chromatography B. 879:727, 2011].

[2] = tested on: plant-derived NMT; test: NMT activity assay with Ephedra sinica plant tissue extract; assay type: biochemical; details: standard assay conditions, 4 hour assay, Ephedra sinica-derived protein
Method: For purification, bacterial pellets obtained following induction/incubation were resuspened in 10 mL of resuspension buffer (50 mM Tris pH 8.5, 10% v/v glycerol, 1% w/v polyvinylpyrrolidone, 5 mM dithiothreitol) and lysed at 4° C. using a French pressure cell (1,000 psi). After centrifugation (10,000 g) to remove insoluble debris, the supernatant was incubated on ice with buffer-equilibrated Talon resin (Clontech) on an orbital shaker (60 rpm) for 60 minutes. The protein-charged resin was washed twice with 10 mL of cold resuspension buffer containing 2.5 mM imidazole, and proteins were eluted stepwise with increasing concentrations (10 to 200 mM) of imidazole in resuspension buffer. Total proteins from a 40 mM imidazole elution were desalted using a PD-10 column (EMD Millipore) and resuspension buffer free of imidazole. Recombinant proteins were analyzed by SDS-PAGE to assess yield and purity, and immunoblot analyses were conducted using α-His primary antibodies and goat-anti-mouse, horseradish peroxidase-conjugated secondary antibodies. Total protein concentration was determined using BCA Protein Assay kit (Thermo Scientific). Calculated protein concentrations were adjusted on gel densitometry. Standard enzyme assays included approximately 100 μg/mL purified NMT protein, which was determined to be in the linear range of catalyst performance. […]

SMILES: CNCC(O)c1ccc(O)cc1 (stereo not shown) [Synephrine, synephrine]
- acceptance as substrate for N-methylation by NMT (FIG. 3) [1]: accepted as substrates

SMILES: CN[C@@H](C)[C@@H](O)c1ccccc1 [pseudoephedrine]
- acceptance as substrate for N-methylation by NMT (FIG. 3) [1]: accepts

SMILES: CC(N)C(O)c1ccccc1 (stereo not shown) [norephedrine]
- conversion by plant-derived extract [2]: yielding ephedrine at comparable levels to E. coli-produced NMT

SMILES: CN[C@@H](C)[C@H](O)c1ccccc1 [ephedrine]
- acceptance as substrate for N-methylation by NMT (FIG. 3) [1]: accepts
- effectiveness as NMT substrate, absolute product quantification (FIG. 4) ([1]; standard assay conditions, product quantified with standard curves as ng alkaloid per μg protein per hour): somewhat lower

SMILES: C[C@H](N)C(=O)c1ccccc1 [cathinone]
- acceptance as substrate for N-methylation by NMT (FIG. 3) [1]: acting as substrate

SMILES: NCC(O)c1ccc(O)cc1 (stereo not shown) [octopamine]
- acceptance as substrate for N-methylation by NMT (FIG. 3) [1]: accepted as substrates
